Data on eleven compounds can be found in paper PMC8568530, “Inhibition of Vascular Smooth Muscle and Cancer Cell Proliferation by New VEGFR Inhibitors and Their Immunomodulator Effect: Design, Synthesis, and Biological Evaluation” (Oxidative Medicine and Cellular Longevity, 2021).

A word on the IC50: it is the midpoint of a concentration-inhibition curve. Low values mean greater potency in that assay, high ones weaker potency in that assay. What is called melting point is the temperature, or range, at which the solid turns liquid.

The test system of data set [1] is MCF-7. Kind of data set: MTT antiproliferative assay, MCF-7. As to conditions: Homo sapiens, MCF7, breast cancer MCF-7. Type of data set: cell-based. As to the method: (§1) The in vitro antiproliferative activities of the newly synthesized compounds were evaluated against a panel of three human tumor cell lines, namely, breast cancer (MCF-7), hepatocellular carcinoma (HepG-2), and colorectal carcinoma (HCT-116) using the standard MTT method. The tested cell lines were selected depending on their VEGF overexpression. Sorafenib, the lead drug, was coassayed as a positive control.
(§2) The antiproliferative activity of the synthesized compounds was evaluated using MTT protocol as described (Supplementary data (available here)).
(Formazan colour is commonly taken as a measure of viable cells.)

Data set [2] has as its system HCT-116. Kind of data set: MTT antiproliferative assay, HCT-116. The format is cell-based. Particulars: Homo sapiens, colorectal carcinoma HCT-116. The method, then: as §1, §2
Data set [3] deals with WI-38 cell line (normal human lung fibroblasts). Kind of data set: MTT cytotoxicity against normal cells WI-38. The format is cell-based. Particulars: normal human lung fibroblasts WI-38. The method, then: The cytotoxicity values of the synthesized compounds against the WI-38 cell line (normal human lung fibroblasts) were also evaluated in vitro.
as §2

Data set [4] concerns HepG-2. Kind of data set: MTT antiproliferative assay, HepG-2. Type of data set: cell-based. As to conditions: Homo sapiens, HepG2, hepatocellular carcinoma HepG-2. As to the method:
as §1, §2

`O=C(NCc1ccccc1)c1ccc(NC(=O)c2cccnc2)cc1` [Compound 6, N-(4-(Benzylcarbamoyl)phenyl)nicotinamide] had a melting point of 229 to 232 °C. In addition, half-maximal inhibition in data set [1] (IC50) was put at 18.3 µM. In data set [2], this compound had an IC50 of 16.4 µM. This compound returned an IC50 in data set [3] of 117 µM. This compound also yielded an IC50 in data set [4] of 15.5 µM.
On to `COc1ccccc1NC(=O)c1ccc(NC(=O)c2cccnc2)cc1` [Compound 7c, N-(4-((2-Methoxyphenyl)carbamoyl)phenyl)nicotinamide], for which the melting point is 185 to 187 °C. Besides, the IC50 in data set [1] stood at 11.8 µM. In data set [2], this compound had an IC50 of 15.3 µM. This compound displayed an IC50 in data set [3] of 137 µM. The compound further returned an IC50 in data set [4] of 19.4 µM.
Turning to `O=C(Nc1ccccc1)c1ccc(NC(=O)c2cccnc2)cc1` [Compound 7d, N-(4-(Phenylcarbamoyl)phenyl)nicotinamide], the melting point is 232 to 235 °C. The compound also came in with an IC50 in data set [1] of 23.1 µM. Further, inhibition in data set [2] was half-maximal at 31.5 µM (IC50). Moreover, inhibition in data set [3] was half-maximal at 144 µM (IC50). In data set [4], this compound registered a 50% inhibitory concentration (IC50) of 29.1 µM.
In the case of `O=C(Nc1ccc(Cl)cc1)c1ccc(NC(=O)c2cccnc2)cc1` [Compound 7e, N-(4-((4-Chlorophenyl)carbamoyl)phenyl)nicotinamide], the melting point lay in the range of 272 to 274 °C. Besides, the midpoint of inhibition in data set [1], the IC50, lay at 13.4 µM. For the same compound, the half-maximal inhibitory concentration (IC50) in data set [2] was 17.8 µM. Besides, it took 143 µM to reach half-maximal inhibition in data set [3] (IC50). Besides, the IC50 in data set [4] came to 22.4 µM.
The compound `O=C(Nc1ccc(C(=O)Nc2ccc(Cl)cc2Cl)cc1)c1cccnc1` [Compound 7g, N-(4-((2,4-Dichlorophenyl)carbamoyl)phenyl)nicotinamide] yielded a melting point of 189 to 192 °C. Moreover, the IC50 in data set [1] came to 42.1 µM. In data set [2], inhibition was half-maximal at 31.7 µM (IC50). Also, inhibition in data set [3] was half-maximal at 132 µM (IC50). The IC50 in data set [4] turned out to be 26.6 µM.
Turning to `O=C(Nc1ccc(C(=O)Nc2ccccc2[N+](=O)[O-])cc1)c1cccnc1` [Compound 7i, N-(4-((2-Nitrophenyl)carbamoyl)phenyl)nicotinamide], the melting point lay in the range of 198 to 201 °C. Besides, in data set [1], the IC50 worked out at 16.1 µM. In data set [2], this compound displayed a half-inhibitory concentration (IC50) of 18.4 µM. In data set [3], this compound showed a 50% inhibitory concentration (IC50) of 103 µM. Besides, the IC50 in data set [4] is 15.2 µM.
For `O=C(N/N=C/c1ccc(F)cc1)c1ccc(NC(=O)c2cccnc2)cc1` [Compound 11a, (E)-N-(4-(2-(4-Fluorobenzylidene)hydrazine-1-carbonyl)phenyl)-nicotinamide], the melting point lay within 263 to 265 °C. In addition, the IC50 in data set [1] was 12.3 µM. Further, the IC50 in data set [2] was determined as 17.2 µM. It took 85.1 µM to reach half-maximal inhibition in data set [3] (IC50). Further, in data set [4], the half-maximal inhibitory concentration (IC50) came to 15.5 µM.
In the same order, the values of `O=C(N/N=C/c1ccccc1)c1ccc(NC(=O)c2cccnc2)cc1` [Compound 11b, (E)-N-(4-(2-Benzylidenehydrazine-1-carbonyl)phenyl)-nicotinamide] are 260 to 262 °C, 15.5 µM, 13.4 µM, 72.3 µM and 17.6 µM.
For the compound `O=C(N/N=C/c1c(Cl)cccc1Cl)c1ccc(NC(=O)c2cccnc2)cc1` [Compound 11e, (E)-N-(4-(2-(2,6-Dichlorobenzylidene)hydrazine-1-carbonyl)phenyl)-nicotinamide], the melting point lay in the range of 283 to 285 °C. 18.2 µM corresponded to half-maximal inhibition in data set [1] (IC50). In data set [2], this compound gave an IC50 of 14.5 µM. In data set [3], the IC50 was found to be 80.1 µM. In data set [4], 23.9 µM corresponded to half-maximal inhibition (IC50).
In the same order, the values of `O=C(N/N=C/c1ccc(O)cc1)c1ccc(NC(=O)c2cccnc2)cc1` [Compound 11h, (E)-N-(4-(2-(4-Hydroxybenzylidene)hydrazine-1-carbonyl)phenyl)-nicotinamide] are 256 to 259 °C, 20.2 µM, 34.9 µM, 103 µM and 31.1 µM.
Consider `CNC(=O)c1cc(Oc2ccc(NC(=O)Nc3ccc(Cl)c(C(F)(F)F)c3)cc2)ccn1` [Sorafenib, reference compound], for which the 50% inhibitory concentration (IC50) amounted to 4.32 µM in data set [1], 5.28 µM in data set [2] and 3.76 µM in data set [4].
